Assay results as given in US20100267697A1, “ION CHANNEL MODULATORS” (Wyeth, priority 2006, published 2010).
Like-named read-outs stand apart in the source and are kept apart here.

Columns and labels:
Cav2.2 = target: T1, Cav2.2 (Homo sapiens, UniProt Q00975); test: HEK assay (whole-cell patch clamp, transiently transfected HEK-293T/17 cells, pulses P1 and P5); format: cell-based; conditions: holding potential −100 mV
T1 construct: expressed in transfected cells; host or cells: HEK-293T/17 (transient, FuGENE 6)
T1 sequence (Q00975 whole entry): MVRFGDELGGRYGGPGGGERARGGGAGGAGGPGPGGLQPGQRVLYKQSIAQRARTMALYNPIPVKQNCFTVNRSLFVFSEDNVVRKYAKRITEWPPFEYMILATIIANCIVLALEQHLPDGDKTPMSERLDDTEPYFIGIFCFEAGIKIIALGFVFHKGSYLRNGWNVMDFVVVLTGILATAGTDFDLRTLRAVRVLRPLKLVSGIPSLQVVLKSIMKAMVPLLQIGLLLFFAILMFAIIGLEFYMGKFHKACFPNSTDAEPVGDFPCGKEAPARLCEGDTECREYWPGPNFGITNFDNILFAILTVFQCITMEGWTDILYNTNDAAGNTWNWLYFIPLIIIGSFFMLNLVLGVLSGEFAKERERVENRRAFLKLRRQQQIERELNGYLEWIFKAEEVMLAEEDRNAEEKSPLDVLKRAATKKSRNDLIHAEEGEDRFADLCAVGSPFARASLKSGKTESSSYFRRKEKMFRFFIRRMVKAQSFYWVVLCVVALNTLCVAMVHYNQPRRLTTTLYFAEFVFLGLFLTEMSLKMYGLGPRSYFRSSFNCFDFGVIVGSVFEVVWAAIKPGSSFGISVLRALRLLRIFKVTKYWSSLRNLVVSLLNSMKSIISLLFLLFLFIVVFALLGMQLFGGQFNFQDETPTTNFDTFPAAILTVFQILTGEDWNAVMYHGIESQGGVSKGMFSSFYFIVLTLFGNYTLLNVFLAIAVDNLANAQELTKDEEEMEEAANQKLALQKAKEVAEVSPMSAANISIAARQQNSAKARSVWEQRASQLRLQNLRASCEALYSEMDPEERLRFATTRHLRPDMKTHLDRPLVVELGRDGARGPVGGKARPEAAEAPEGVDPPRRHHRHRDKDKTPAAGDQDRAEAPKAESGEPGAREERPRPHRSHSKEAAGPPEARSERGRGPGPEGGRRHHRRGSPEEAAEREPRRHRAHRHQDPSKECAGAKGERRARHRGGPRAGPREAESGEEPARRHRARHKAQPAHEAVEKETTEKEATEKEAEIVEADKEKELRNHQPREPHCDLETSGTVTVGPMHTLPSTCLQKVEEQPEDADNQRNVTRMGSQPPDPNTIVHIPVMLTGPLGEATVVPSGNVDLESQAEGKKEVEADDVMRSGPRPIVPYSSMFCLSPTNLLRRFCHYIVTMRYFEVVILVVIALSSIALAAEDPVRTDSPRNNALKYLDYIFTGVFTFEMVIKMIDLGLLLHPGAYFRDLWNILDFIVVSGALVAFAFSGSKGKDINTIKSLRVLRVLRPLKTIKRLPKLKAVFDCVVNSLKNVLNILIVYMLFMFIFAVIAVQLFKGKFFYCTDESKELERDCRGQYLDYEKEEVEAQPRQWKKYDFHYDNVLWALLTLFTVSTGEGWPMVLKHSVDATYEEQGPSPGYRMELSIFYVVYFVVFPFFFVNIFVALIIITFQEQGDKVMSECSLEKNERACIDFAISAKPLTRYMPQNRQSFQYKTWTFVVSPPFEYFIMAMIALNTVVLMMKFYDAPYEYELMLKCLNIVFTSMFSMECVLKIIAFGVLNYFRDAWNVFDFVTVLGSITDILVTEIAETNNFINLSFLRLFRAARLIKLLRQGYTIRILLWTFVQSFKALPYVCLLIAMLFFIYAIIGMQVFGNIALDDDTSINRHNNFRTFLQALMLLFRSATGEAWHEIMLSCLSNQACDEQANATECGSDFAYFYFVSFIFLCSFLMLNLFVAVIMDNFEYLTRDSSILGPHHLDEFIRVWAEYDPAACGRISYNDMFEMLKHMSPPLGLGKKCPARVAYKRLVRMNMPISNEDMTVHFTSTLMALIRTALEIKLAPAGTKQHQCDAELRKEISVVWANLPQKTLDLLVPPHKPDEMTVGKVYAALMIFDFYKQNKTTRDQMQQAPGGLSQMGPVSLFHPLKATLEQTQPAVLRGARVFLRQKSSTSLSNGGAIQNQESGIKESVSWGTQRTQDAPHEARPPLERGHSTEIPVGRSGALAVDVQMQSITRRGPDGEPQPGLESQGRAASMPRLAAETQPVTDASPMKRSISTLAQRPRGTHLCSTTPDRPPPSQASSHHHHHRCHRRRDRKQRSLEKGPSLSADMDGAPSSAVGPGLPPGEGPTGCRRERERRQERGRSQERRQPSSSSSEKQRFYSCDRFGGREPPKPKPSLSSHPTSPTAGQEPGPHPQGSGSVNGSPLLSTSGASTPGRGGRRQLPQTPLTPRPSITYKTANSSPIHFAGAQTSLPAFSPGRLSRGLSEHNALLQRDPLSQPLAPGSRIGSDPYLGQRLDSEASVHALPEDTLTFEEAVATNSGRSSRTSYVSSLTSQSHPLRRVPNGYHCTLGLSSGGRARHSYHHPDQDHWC
T1 sequence (P54284 whole entry partner): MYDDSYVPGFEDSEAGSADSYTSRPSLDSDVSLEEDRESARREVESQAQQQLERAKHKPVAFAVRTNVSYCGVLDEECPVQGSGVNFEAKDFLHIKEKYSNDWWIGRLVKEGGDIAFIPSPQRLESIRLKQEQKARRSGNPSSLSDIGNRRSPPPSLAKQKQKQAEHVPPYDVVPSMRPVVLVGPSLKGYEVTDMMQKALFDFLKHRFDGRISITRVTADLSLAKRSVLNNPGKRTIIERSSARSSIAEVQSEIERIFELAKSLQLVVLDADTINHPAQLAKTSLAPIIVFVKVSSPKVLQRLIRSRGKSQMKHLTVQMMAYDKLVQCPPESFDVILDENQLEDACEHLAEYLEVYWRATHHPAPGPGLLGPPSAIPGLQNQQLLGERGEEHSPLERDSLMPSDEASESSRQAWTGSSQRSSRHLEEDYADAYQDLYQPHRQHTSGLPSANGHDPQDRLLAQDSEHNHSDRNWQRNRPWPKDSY
T1 sequence (P54289 25-946 partner limits assumed): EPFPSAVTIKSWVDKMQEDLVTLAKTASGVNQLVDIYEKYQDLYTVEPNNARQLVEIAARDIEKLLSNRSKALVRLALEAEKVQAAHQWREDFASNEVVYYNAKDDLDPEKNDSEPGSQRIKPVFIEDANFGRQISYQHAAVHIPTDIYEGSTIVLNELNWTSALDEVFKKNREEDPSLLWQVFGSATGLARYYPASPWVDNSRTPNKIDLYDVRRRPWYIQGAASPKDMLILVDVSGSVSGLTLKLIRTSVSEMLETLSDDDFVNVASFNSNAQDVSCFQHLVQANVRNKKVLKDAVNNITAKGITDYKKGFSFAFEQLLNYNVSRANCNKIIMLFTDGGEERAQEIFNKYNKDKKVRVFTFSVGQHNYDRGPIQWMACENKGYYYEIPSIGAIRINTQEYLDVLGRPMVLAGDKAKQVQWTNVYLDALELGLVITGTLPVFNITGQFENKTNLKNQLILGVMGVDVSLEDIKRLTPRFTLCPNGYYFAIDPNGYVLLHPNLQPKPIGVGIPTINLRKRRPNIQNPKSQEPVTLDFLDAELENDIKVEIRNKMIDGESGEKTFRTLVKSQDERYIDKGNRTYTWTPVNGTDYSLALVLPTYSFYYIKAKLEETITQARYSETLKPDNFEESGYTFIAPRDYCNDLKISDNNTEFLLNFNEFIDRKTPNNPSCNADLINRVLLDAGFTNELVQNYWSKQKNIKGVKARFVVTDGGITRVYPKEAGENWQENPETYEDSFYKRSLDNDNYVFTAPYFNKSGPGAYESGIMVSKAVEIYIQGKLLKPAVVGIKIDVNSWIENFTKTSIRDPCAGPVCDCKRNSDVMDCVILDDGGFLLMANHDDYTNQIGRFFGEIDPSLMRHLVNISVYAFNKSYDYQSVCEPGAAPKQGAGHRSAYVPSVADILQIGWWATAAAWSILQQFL
T1 sequence (P54289 947-1103 partner limits assumed): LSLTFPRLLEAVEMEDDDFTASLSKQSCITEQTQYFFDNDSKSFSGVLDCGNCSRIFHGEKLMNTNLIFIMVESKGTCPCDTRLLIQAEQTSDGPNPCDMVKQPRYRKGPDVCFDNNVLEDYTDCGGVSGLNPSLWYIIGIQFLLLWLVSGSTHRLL
Protocol: HEK-293T/17 cells were transiently transfected in a similar manner as described in FuGENE 6 Package Insert Version 7, April 2002, Roche Applied Science, Indianapolis, Ind. The cells were plated at 2.5×10^5 cells in 2 mL in a 6-well plate, incubated for one night, and achieved a ˜30-40% confluence. In a small sterile tube, sufficient serum-free medium was added as diluent for FuGENE Transfection Reagent (Roche Applied Science, Indianapolis, Ind.) to a total volume of 100 μL. To this medium was added 3 μL of FuGENE 6 Reagent. The mixture was tapped gently to mix. To the prediluted FuGENE 6 Reagent was added 2 μg of DNA solution (0.8-2.0 μg/μL). The DNA/Fugene 6 mixture was gently pipeted to mix the contents and incubated for about 15 minutes at room temperature. The complex mixture was then added to the HEK-293T/17 cells, distributed around the well, and swirled to ensure even dispersal. The cells were returned to the incubator for 24 hours. The transfected cells were then replated at density 2.5×10^5 in a 35 mm dish with 5 glass coverslips and grew in low serum (1%) media for 24 hours. Coverslips with isolated cells were then transferred into a chamber, and calcium channel (e.g., L-type, N-type, etc.) current or other currents for counter screening were recorded from the transiently transfected HEK-293T/17 cells.
The whole-cell voltage clamp configuration of the patch clamp technique was employed to evaluate voltage-dependent calcium currents essentially as described by Thompson and Wong (1991), J. Physiol., 439: 671-689, the entire disclosure of which is herein incorporated by reference. To record calcium channel (e.g., L-type, N-type, etc.) currents for evaluation of inhibitory potency of compounds (steady-state concentration-response analysis), five pulses of 20-30 ms voltage steps to about +10 mV (the peak of the current voltage relationship) were delivered at five Hz every 30 second from a holding potential at −100 mV. In order to obtain an estimate of the degree of use-dependent block of the test compounds, IC50 values were determined at the first and fifth pulse of the train (P1 and P5, respectively, in Table 2). Compound evaluations were carried out essentially as described by Sah D. W. and Bean B. P. (1994), Mol. Pharmacol., 45:84-92, the entire disclosure of which is herein incorporated by reference.

[1] = target: T2, human Cav2.2 (composed of the subunits α1, β3 and α2δ) (Homo sapiens, UniProt Q00975); test: FLIPR assay (TSA201 cells stably transfected with human Cav2.2 and human Kir2.3, FLUO-4 Ca2+ signal, KCl depolarization); format: cell-based; conditions: 70 mM KCl depolarization, average value
T2 construct: expressed in transfected cells
T2 sequence (Q00975 whole entry): as the sequence (Q00975 whole entry) above
T2 sequence (P54284 whole entry partner): as the sequence (P54284 whole entry partner) above
T2 sequence (P54289 25-946 partner limits assumed): as the sequence (P54289 25-946 partner limits assumed) above
T2 sequence (P54289 947-1103 partner limits assumed): as the sequence (P54289 947-1103 partner limits assumed) above
Protocol: TSA201 cells stably transfected with human Cav2.2 (composed of the subunits α1, β3 and α2δ) and human Kir2.3 to enhance the FLIPR Ca^2+ signal were used. These cells were plated on 384-well collagen-coated plates (BD Bioscience, Franklin Lakes, N.J.) at a density of 2×10^4 cells/well one day prior to the FLIPR assay. […] Culture media is removed and replaced with 25 μl of the FLUO-4 dye solution and incubated for one hour at room temperature. The cell plate is then placed on the FLIPR where the dye is aspirated off and replaced with 25 μl of HBSS (Invitrogen, Carlsbad, Calif.). The HBSS is then aspirated and replaced with […] of compound which is diluted in HBSS with 1% DMSO. Compounds are incubated on the cells for 15 minutes. The cells are then depolarized with 25 μl of 140 mM KCl solution (also containing 2 mM CaCl2 and 10 mM HEPES). The final concentration of KCl on the cells is 70 mM.

[2] = fifth pulse (P5) of 5 Hz train, read-out: HEK Cav2.2 P5 IC50
[3] = first pulse (P1) of 5 Hz train, read-out: HEK Cav2.2 P1 IC50

| Structure (SMILES) | IC50 (Cav2.2; [2]) [µM] | IC50 (Cav2.2; [3]) [µM] | IC50 [1] [µM] |
| --- | --- | --- | --- |
| CCN(CC)c1ccc(N(Cc2cccc(N(CC)C3CC3)c2)C(=O)C(C)(C)C)cc1 [Compound 97, N-[3-(Cyclopropyl(ethyl)amino)-benzyl]-N-(4-diethylamino-phenyl)-2,2-dimethyl-propionamide] | 0.4 | 1.1 |  |
| CCN(CC)c1ccc(CN(C(=O)CCC(C)C)c2ccc(N)cc2)cc1 [Compound 98, 4-Methyl-pentanoic acid (4-aminophenyl)-(4-Diethylaminobenzyl)-amide] | 1.9 | 5.2 |  |
| CCN(CC)c1ccc(CN(C(=O)CCC(C)C)c2ccc(NC)cc2)cc1 [Compound 99, 4-Methyl-pentanoic acid (4-Diethylaminobenzyl)-(4-methylamino-phenyl)-amide] | < 0.1 | 4.3 |  |
| CCN(c1ccc(CN(C(=O)C(C)(C)C)c2ccc(N(C)C)cc2)cn1)C1CC1 [Compound 100, N-[6-(Cycloproyl(ethyl)amino)-pyridin-3-ylmethyl]-N-(4-dimethylamino-phenyl)-2,2-dimethyl-propionamide] | 4.3 | 8 |  |
| CC(C)(C)OC(=O)N(Cc1csc(-c2ccncc2)n1)c1ccc(F)cc1 [Compound 101, (4-Fluorophenyl)-(2-pyridin-4-yl-thiazol-4-ylmethyl)-carabamic acid tert-butyl ester] | 8.4 |  |  |
| CN1CCN(c2ncc(CN(C(=O)OC(C)(C)C)c3ccc(F)cc3)s2)CC1 [Compound 102, (4-Fluorophenyl)-[2-(4-methyl-piperazin-1-yl)-thiazol-5-ylmethyl]-carbamic acid tert-butyl ester] | 9.6 |  |  |
| O=C(C1CC1)N(Cc1csc(N2CCCCC2)n1)c1ccc(F)cc1 [Compound 107, Cyclopropanecarboxylic acid (4-fluorophenyl)-(2-piperidin-1-yl-thiazol-4-ylmethyl)-amide] | 2.5 | 11.1 |  |
| O=C(C1CCCCC1)N(Cc1csc(N2CCOCC2)n1)c1ccc(F)cc1 [Compound 108, Cyclohexanecarboxylic acid (4-fluorophenyl)-(2-morpholin-4-yl-thiazol-4-ylmethyl)-amide] | 3.9 | 14.1 |  |
| O=C(C1CCCO1)N(Cc1ccc(N2CCN(c3ccccn3)CC2)nc1)c1ccc(F)cc1 (centres unmarked) [Compound 109, Tetrahydro-furan-2-carboxylic acid (4-fluorophenyl)-[6-(4-pyridin-2-yl-piperazin-1-yl)-pyridin-3-ylmethyl]-amide] | 2.6 | 13.9 |  |
| CN(c1ccc(F)cc1)c1nc(CN(C(=O)C2CCCN2C)c2ccc(F)cc2)cs1 (centres unmarked) [Compound 114, 1-Methyl-pyrrolidine-2-carboxylic acid (4-fluroophenyl)-{2-[(4-fluorophenyl)-methyl-amino]-thiazol-4-ylmethyl]-amide] | 2.1 | 4.8 |  |
| CCN(c1ccc(CN(C(=O)C2CCCN2Cc2ccccc2)c2ccc(F)cc2)cn1)C1CC1 (centres unmarked) [Compound 115, 1-Benzyl-pyrrolidine-2-carboxylic acid [6-(Cyclopropyl(ethyl)amino)-pyridin-3-ylmethyl]-(4-fluorophenyl)-amide] | 0.6 | 2.7 |  |
| CCN(CC)c1ccc(CN(C(=O)[C@@H]2CCCN2)c2ccc(F)cc2)cn1 [Compound 116, N-{[6-(diethylamino)pyridin-3-yl]methyl}-N-(4-fluroophenyl)-L-prolinamide] |  |  | 34.8 |
| CCN(c1ccc(CN(C(=O)[C@@H]2CCCN2)c2ccc(OC)cc2)cc1)C1CC1 [Compound 117, N-{4-[cyclopropyl(ethyl)amino]benzyl}-N-(4-methoxyphenyl)-L-prolinamide] |  |  | 9.7 |
| CCN(c1cccc(CN(C(=O)[C@@H]2CCCN2)c2ccc(F)cc2)c1)C1CC1 [Compound 118, N-{3-[cyclopropyl(ethyl)amino]benzyl}-N-(4-fluorophenyl)-L-prolinamide] |  |  | 3.4 |
| CCN(CC)c1cccc(CN(C(=O)[C@@H]2CCCN2)c2ccc(Cl)cc2)n1 [Compound 119, N-(4-chlorophenyl)-N-{[6-(diethylamino)pyridin-2-yl]methyl}-L-prolinamide] |  |  | 12.2 |
| Cc1cc(F)ccc1N(Cc1cnc(N2CCCCC2)nc1)C(=O)[C@@H]1CCCN1 [Compound 120, N-(4-fluoro-2-methylphenyl)-N-[(2-piperidin-1-ylpyrimidin-5-yl)methyl]-L-prolinamide] |  |  | 13.7 |
| Cc1ccc(N(Cc2cnc(N3CCCC3)s2)C(=O)[C@@H]2CCCN2)cc1 [Compound 121, N-(4-methylphenyl)-N-[(2-pyrrolidin-1-yl-1,3-thiazol-5-yl)methyl]-L-prolinamide] |  |  | 20.9 |
| CCN(c1nc(CN(C(=O)[C@@H]2CCCN2)c2ccc(F)cc2)cs1)C1CC1 [Compound 122, N-({2-[cyclopropyl(ethyl)amino]-1,3-thiazol-4-yl}methyl)-N-(4-fluorophenyl)-L-prolinamide] |  |  | 13.8 |
| CCN(c1nc(CN(C(=O)[C@H]2CCCN2)c2ccc(F)cc2)cs1)C1CC1 [Compound 123, N-({2-[cyclopropyl(ethyl)amino]-1,3-thiazol-4-yl}methyl)-N-(4-fluorophenyl)-D-prolinamide] |  |  | 10.2 |
| CCN(c1nc(CN(C(=O)[C@@H]2CCC(=O)N2)c2ccc(F)cc2)cs1)C1CC1 [Compound 124, N-({2-[cyclopropyl(ethyl)amino]-1,3-thiazol-4-yl}methyl)-N-(4-fluorophenyl)-5-oxo-L-prolinamide] |  |  | 19.7 |
| CN1CCN(c2ccc(CN(C(=O)C3CCCCC3)c3ccc(F)cc3)cn2)CC1 [Compound 125, N-(4-fluorophenyl)-N-{[6-(4-methylpiperazin-1-yl)pyridin-3-yl]methyl}cyclohexanecarboxamide] |  |  | 9.5 |
| CN1CCN(c2ccc(CN(C(=O)NC(C)(C)C)c3ccc(F)cc3)cn2)CC1 [Compound 126, N′-(tert-butyl)-N-(4-fluorophenyl)-N-{[6-(4-methylpiperazin-1-yl)pyridin-3-yl]methyl}urea] |  |  | 30 |
| CC(CC(=O)N(Cc1ccc(N(C)CCc2ccccn2)nc1)c1ccc(F)cc1)C(F)(F)F (centres unmarked) [Compound 127] |  |  | 2.6 |
| O=C(C1CCCCC1)N(Cc1ccc(N2CCN(c3ccccn3)CC2)nc1)c1ccc(F)cc1 [Compound 128, N-(4-fluorophenyl)-N-{[6-(4-pyridin-2-ylpiperazin-1-yl)pyridin-3-yl]methyl}cyclohexanecarboxamide] |  |  | 9.1 |
| CCN(CC)c1ccc(CN(C(=O)Cc2cccs2)c2ccc(F)cc2)cn1 [Compound 129] |  |  | 1.5 |
| CN(CCO)c1ccc(CN(C(=O)C(C)(C)C)c2ccc(F)cc2)cn1 [Compound 130, N-(4-fluorophenyl)-N-({6-[(2-hydroxyethyl)(methyl)amino]pyridin-3-yl}methyl)-2,2-dimethylpropanamide] |  |  | 14.8 |
| Cc1ccc(OCCN(C)c2ccc(CN(C(=O)C(C)(C)C)c3ccc(F)cc3)cn2)nc1 [Compound 131, N-(4-fluorophenyl)-2,2-dimethyl-N-{[6-(methyl{2-[(5-methylpyridin-2-yl)oxy]ethyl}amino)pyridin-3-yl]methyl}propanamide] |  |  | 8.1 |
| CC(C)(C)C(=O)N(Cc1ccc(N2CCCC2)nc1)c1ccc(F)cc1 [Compound 132, N-(4-fluorophenyl)-2,2-dimethyl-N-[(6-pyrrolidin-1-ylpyridin-3-yl)methyl]propanamide] |  |  | 8.2 |
| CCN(CC)C1CCN(c2ccc(CN(C(=O)C(C)(C)C)c3ccc(F)cc3)cn2)C1 (centres unmarked) [Compound 133, N-({6-[3-(diethylamino)pyrrolidin-1-yl]pyridin-3-yl}methyl)-N-(4-fluorophenyl)-2,2-dimethylpropanamide] |  |  | 11.5 |
